# Assay results published in US7700624B2, “3-aminocyclopentanecrboxamides as modulators of chemokine receptors” (Incyte Corporation, priority 2005, dated 2010).
# Target: T1, CCR2 (Homo sapiens, UniProt P41597)
# T1 construct: Peripheral Blood Mononuclear Cells (PBMCs) prepared from normal human whole blood via density gradient centrifugation; endogenous in cells; host or cells: human PBMCs from normal whole blood
# T1 sequence (P41597 1-360 isoform P41597-2): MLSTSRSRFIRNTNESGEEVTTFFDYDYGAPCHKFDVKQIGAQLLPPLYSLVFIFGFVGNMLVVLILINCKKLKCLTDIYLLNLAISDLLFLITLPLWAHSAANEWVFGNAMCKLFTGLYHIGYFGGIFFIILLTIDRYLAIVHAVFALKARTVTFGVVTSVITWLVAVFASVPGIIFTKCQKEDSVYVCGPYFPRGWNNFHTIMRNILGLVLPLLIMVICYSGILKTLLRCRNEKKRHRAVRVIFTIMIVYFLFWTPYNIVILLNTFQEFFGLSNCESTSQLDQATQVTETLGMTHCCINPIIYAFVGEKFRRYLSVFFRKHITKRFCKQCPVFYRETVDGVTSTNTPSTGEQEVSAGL
# Experiment: CCR2 binding assay: 125I-labeled MCP-1 binding to human PBMCs
# Settings: inhibition of specific binding of 0.1 to 0.2 nM 125I-labeled MCP-1 to human PBMCs, 30 min at room temperature
# Description: The CCR2 antagonist activity of compounds of the invention can be reported as the inhibitor concentration required for 50% inhibition (IC50 values) of specific binding in receptor binding assays using ^125I-labeled MCP-1, as ligand, and Peripheral Blood Mononuclear Cells (PBMCs) prepared from normal human whole blood via density gradient centrifugation. Specific binding is preferably defined as the total binding (e.g., total cpm on filters) minus the non-specific binding. Non-specific binding is defined as the amount of cpm still detected in the presence of excess unlabeled competitor (e.g., MCP-1).
# Human PBMCs are used to test compounds of the invention in a binding assay. For example, 200,000 to 500,000 cells are incubated with 0.1 to 0.2 nM ^125I-labeled MCP-1, with or without unlabeled competitor (10 nM MCP-1) or various concentrations of compounds to be tested. ^125I-labeled MCP-1, are prepared by suitable methods or purchased from commercial vendors (Perkin Elmer, Boston Mass.). The binding reactions are performed in 50 to 250 μL of a binding buffer consisting of […] pH 7.2, and 0.1% BSA (bovine serum albumin), for 30 min at room temperature. The binding reactions are terminated by harvesting the membranes by rapid filtration through glass fiber filters (Perkin Elmer) which is presoaked in 0.3% polyethyleneimine or Phosphate Buffered Saline (PBS). The filters were rinsed with approximately 600 μL of binding buffer containing 0.5 M NaCl or PBS, then dried, and the amount of bound radioactivity is determined by counting on a Gamma Counter (Perkin Elmer).
row,IC50 [nM],Compound
1,736,"COc1ccc(CN[C@@H]2CC[C@@](C(=O)N3CCN(c4cc(C(F)(F)F)ccn4)CC3)(C(C)C)C2)cc1O [Example 29, 5-({[(1R,3S)-3-isopropyl-3-({4-[4-(trifluoromethyl)pyridin-2-yl]piperazin-1-yl}carbonyl)cyclopentyl]amino}methyl)-2-methoxyphenol]"
2,364,"CC(C)[C@]1(C(=O)N2CCN(c3cc(C(F)(F)F)ccn3)CC2)CC[C@@H](NCc2ccc3c(c2)OCC(=O)N3)C1 [Example 30, 6-({[(1R,3S)-3-isopropyl-3-({4-[4-(trifluoromethyl)pyridin-2-yl]piperazin-1-yl}carbonyl)cyclopentyl]amino}methyl)-2H-14-benzoxazin-3(4H)-one]"
3,334,"COc1cc(CN[C@@H]2CC[C@@](C(=O)N3CCN(c4cc(C(F)(F)F)ccn4)CC3)(C(C)C)C2)ccc1C [Example 31, (1R,3S)-3-isopropyl-N-(3-methoxy-4-methylbenzyl)-3-({4-[4-(trifluoromethyl)pyridin-2-yl]piperazin-1-yl}carbonyl)cyclopentanamine]"
